Results reported in patent US6900194B1, “Use of substituted 4-biarylbutyric and 5-biarylpentanoic acid derivatives as matrix metalloprotease inhibitors for the treatment of respiratory diseases” (Bayer Aktiengesellschaft, priority 1998, dated 2005).

How the values were obtained:
MMP-3 (Stromelysin) = molecular target: T1, MMP-3 (Stromelysin) (Homo sapiens, UniProt P08254); test: P218 quenched fluorescence assay, MMP-3; assay type: biochemical
T1 construct: Truncated Pro-stromelysin-257 is expressed in a soluble form in E. coli as described by Marcy et al; made in house; host or cells: E. coli
T1 sequence (P08254 100-274): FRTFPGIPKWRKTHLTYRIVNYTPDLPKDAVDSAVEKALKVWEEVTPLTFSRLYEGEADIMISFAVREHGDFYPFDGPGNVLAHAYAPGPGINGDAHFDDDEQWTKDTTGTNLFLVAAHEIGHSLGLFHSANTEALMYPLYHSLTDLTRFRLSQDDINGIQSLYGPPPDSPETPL
From the text: (§1) P218 Quenched Fluorescence Assay for MMP Inhibition:
(§2) This assay is adapted from the one described by Knight et al., FEBS Letters, 296, 263-266 (1992) for MMP-3 and a related substrate. The rate of hydrolysis of the synthetic substrate H-MCA-Pro-Lys-Pro-Leu-Ala-Leu-DPA-Ala-Arg-NH2 (P218) by the respective MMPs is monitored fluorometrically, using an excitation wavelength of 340 nm and an emission wavelength of 395 nm, in the presence or absence of the test compounds. The substrate is made up initially in 100% DMSO to a concentration of 1×10^−2 M, then diluted in assay buffer to a final concentration of 20 μM. […] The total assay volume in a 96 well microtitre plate is 150 μl, Cleavage of the substrate between the Leu-Ala residues allows the fluorescence of the MCA group to be detected on a fluorometer (Cytofluor II) following excitation at 340 nm and emission at 395 nm. Change in fluorescence is continually monitored for a 40 min period.
(§3) The Ki's are calculated using the method described by Williams and Morrison, Methods in Enzymology, 63, 437-467 (1979) to measure Ki apparent for tight binding inhibitors, and is summarised as follows: [I]0/(1−vi/v0)=Ki apparent ×vi/v0+[E]0 [I]0 and [E]0 are inhibitor and enzyme concentrations, and vi/v0 are reaction velocities with/without inhibitor. […]
(§4) IC50's are determined at each enzyme concentration using Xlfit software. […]

[1] = molecular target: T2, MMP-1 (Human Gingival Fibroblast Interstitial Collagenase) (Homo sapiens, UniProt P03956); test: P218 quenched fluorescence assay, MMP-1; assay type: biochemical; details: read-out: Potency Ki vs. MMP-1
T2 construct: Jack Windsor (supplied, not bought)
T2 sequence (P03956 100-469): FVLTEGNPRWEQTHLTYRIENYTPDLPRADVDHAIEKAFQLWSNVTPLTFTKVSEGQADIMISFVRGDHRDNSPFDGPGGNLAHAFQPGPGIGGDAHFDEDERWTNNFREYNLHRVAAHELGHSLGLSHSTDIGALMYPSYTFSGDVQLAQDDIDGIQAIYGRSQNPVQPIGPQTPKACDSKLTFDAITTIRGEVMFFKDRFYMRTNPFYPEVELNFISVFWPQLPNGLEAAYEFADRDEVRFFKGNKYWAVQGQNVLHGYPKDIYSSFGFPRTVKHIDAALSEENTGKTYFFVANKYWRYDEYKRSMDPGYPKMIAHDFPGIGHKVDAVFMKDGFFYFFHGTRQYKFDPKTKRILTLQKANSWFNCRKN
From the text: as §1, §2, §3, §4

SMILES | IC50 (MMP-3 (Stromelysin); read-out: IC50 vs. MMP-3 (value marked *)) | Ki [1] | Ki (MMP-3 (Stromelysin); read-out: Potency Ki vs. MMP-3)
CCOc1ccc(-c2ccc(C(=O)CC(CCN3C(=O)c4ccccc4C3=O)C(=O)O)cc2)cc1 (single isomer, unassigned; (+)) [Example 2, (+)-2-[2-(1,3-Dioxo-1,3-dihydro-2H-isoindol-2-yl)ethyl]-4-(4′-ethoxy[1,1′-biphenyl]-4-yl)-4-oxobutanoic acid] | 60 nM | > 3000 nM | 
O=C(CC(CCN1C(=O)c2ccccc2C1=O)C(=O)O)c1ccc(-c2ccc(Cl)cc2)cc1 (single isomer, unassigned; (+)) [Example 4, (+)-4-(4′-Chloro[1,1′-biphenyl]4-yl)-2-[2-(1,3-dioxo-1,3-dihydro-2H-isoindol-2-yl)ethyl]-4-oxobutanoic acid] |  | 639 nM | 3.7 nM
